Measured values taken from PubChem BioAssay (NCI).
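Here, GI50 denotes the concentration required for 50% inhibition of growth. TGI denotes the concentration required for complete inhibition of growth.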

Key:
Assay in all cases: DTP human tumour cell line panel, 384-well format
786-0 renal = system: 786-0 renal
A498 renal = system: A498 renal
A549 NSCLC = system: A549 NSCLC
ACHN renal = system: ACHN renal
CAKI-1 renal = system: CAKI-1 renal
CCRF-CEM leukemia = system: CCRF-CEM leukemia
COLO 205 colon = system: COLO 205 colon
DU-145 prostate = system: DU-145 prostate
HCC-2998 colon = system: HCC-2998 colon
HCT-116 colon = system: HCT-116 colon
HCT-15 colon = system: HCT-15 colon
HOP-62 NSCLC = system: HOP-62 NSCLC
HOP-92 NSCLC = system: HOP-92 NSCLC
HS 578T breast = system: HS 578T breast
HT29 colon = system: HT29 colon
IGROV1 ovarian = system: IGROV1 ovarian
K-562 leukemia = system: K-562 leukemia
KM12 colon = system: KM12 colon
LOX IMVI melanoma = system: LOX IMVI melanoma
MALME-3M melanoma = system: MALME-3M melanoma
MCF7 breast = system: MCF7 breast
NCI-H226 lung = system: NCI-H226 lung
NCI-H23 lung = system: NCI-H23 lung
NCI-H322M lung = system: NCI-H322M lung
NCI-H460 NSCLC = system: NCI-H460 NSCLC
NCI-H522 lung = system: NCI-H522 lung
NCI/ADR-RES ovarian = system: NCI/ADR-RES ovarian
OVCAR-3 ovarian = system: OVCAR-3 ovarian
OVCAR-4 ovarian = system: OVCAR-4 ovarian
OVCAR-5 ovarian = system: OVCAR-5 ovarian
OVCAR-8 ovarian = system: OVCAR-8 ovarian
PC-3 prostate = system: PC-3 prostate
RPMI-8226 leukemia = system: RPMI-8226 leukemia
RXF 393 renal = system: RXF 393 renal
SF-295 CNS = system: SF-295 CNS
SF-539 CNS = system: SF-539 CNS
SK-MEL-28 melanoma = system: SK-MEL-28 melanoma
SK-MEL-5 melanoma = system: SK-MEL-5 melanoma
SN12C renal = system: SN12C renal
SNB-19 CNS = system: SNB-19 CNS
SNB-75 CNS = system: SNB-75 CNS
SR leukemia = system: SR leukemia
SW-620 colon = system: SW-620 colon
T-47D breast = system: T-47D breast
U251 glioblastoma = system: U251 glioblastoma
UACC-62 melanoma = system: UACC-62 melanoma
UO-31 renal = system: UO-31 renal

## O=C(/C=C\n1cnc(-c2cc(C(F)(F)F)cc(C(F)(F)F)c2)n1)NNc1cnccn1
786-0 renal
  GI50: 59.8 nM
  TGI: 3310 nM
A498 renal
  GI50: 72.8 nM
  TGI: 1540 nM
A549 NSCLC
  GI50: 109 nM
  TGI: 5620 nM
ACHN renal
  GI50: 250 nM
  TGI: 5390 nM
CAKI-1 renal
  GI50: 99.7 nM
  TGI: 13100 nM
CCRF-CEM leukemia
  GI50: 91 nM
  TGI: 390 nM
COLO 205 colon
  GI50: 84.2 nM
  TGI: 4600 nM
DU-145 prostate
  GI50: 274 nM
  TGI: 1220 nM
HCC-2998 colon
  GI50: 46.3 nM
  TGI: 530 nM
HCT-116 colon
  GI50: 60.8 nM
  TGI: 504 nM
HCT-15 colon
  GI50: 152 nM
  TGI: 1310 nM
HOP-62 NSCLC
  GI50: 166 nM
  TGI: 1170 nM
HOP-92 NSCLC
  GI50: 194 nM
  TGI: 4360 nM
HS 578T breast
  GI50: 41.1 nM
  TGI: 281 nM
HT29 colon
  GI50: 213 nM
  TGI: 6540 nM
IGROV1 ovarian
  GI50: 424 nM
  TGI: 7510 nM
K-562 leukemia
  GI50: 41.7 nM
  TGI: 289 nM
KM12 colon
  GI50: 442 nM
  TGI: 3860 nM
LOX IMVI melanoma
  GI50: 144 nM
  TGI: 555 nM
MALME-3M melanoma
  GI50: 142 nM
  TGI: 1170 nM
MCF7 breast
  GI50: 58 nM
  TGI: 2150 nM
NCI-H226 lung
  GI50: 33.8 nM
  TGI: 858 nM
NCI-H23 lung
  GI50: 54.8 nM
  TGI: 889 nM
NCI-H322M lung
  GI50: 213 nM
  TGI: 5260 nM
NCI-H460 NSCLC
  GI50: 48.3 nM
  TGI: 337 nM
NCI-H522 lung
  GI50: 61.1 nM
  TGI: 304 nM
NCI/ADR-RES ovarian
  GI50: 89.1 nM
  TGI: 1570 nM
OVCAR-3 ovarian
  GI50: 57.6 nM
  TGI: 463 nM
OVCAR-4 ovarian
  GI50: 316 nM
  TGI: 1040 nM
OVCAR-5 ovarian
  GI50: 342 nM
  TGI: 9930 nM
OVCAR-8 ovarian
  GI50: 70.6 nM
  TGI: 936 nM
PC-3 prostate
  GI50: 57.6 nM
  TGI: 999 nM
RPMI-8226 leukemia
  GI50: 19.6 nM
  TGI: 64.9 nM
RXF 393 renal
  GI50: 21.6 nM
  TGI: 82.7 nM
SF-295 CNS
  GI50: 86 nM
  TGI: 1050 nM
SF-539 CNS
  GI50: 26.2 nM
  TGI: 86 nM
SK-MEL-28 melanoma
  GI50: 192 nM
  TGI: 1380 nM
SK-MEL-5 melanoma
  GI50: 143 nM
  TGI: 675 nM
SN12C renal
  GI50: 655 nM
  TGI: 5870 nM
SNB-19 CNS
  GI50: 451 nM
  TGI: 8540 nM
SNB-75 CNS
  GI50: 77 nM
  TGI: 422 nM
SR leukemia
  GI50: 13.7 nM
  TGI: 29.8 nM
SW-620 colon
  GI50: 81.8 nM
  TGI: 7100 nM
T-47D breast
  GI50: 165 nM
  TGI: 4110 nM
U251 glioblastoma
  GI50: 88.9 nM
  TGI: 816 nM
UACC-62 melanoma
  GI50: 106 nM
  TGI: 418 nM
UO-31 renal
  GI50: 466 nM
  TGI: 4410 nM
